Tested on: CDK9 at ISG56 and ISG15 promoters
Assay: ChIP for CDK9 (P-TEFb) at ISG promoters in 2fTGH cells
Format: cell-based, human
Settings: IFN-α 60 min in presence of TSA
Experimental: FIG. 4. HDAC activity is required for P-TEFb recruitment. (A) HeLa cells were either left untreated or treated with IFN-α for 1 h in presence or absence of 100 or 200 nM of the CDK9 inhibitor flavopiridol (Flay). Using primers spanning intron-exon junctions, nuclear pre-mRNA abundance for ISG54 and RPS11 were quantified using real-time RT-PCR and normalized to GAPDH mRNA. (B) 2fTGH cells were either left untreated or treated with IFN-α in the absence or presence of TSA for 60 min. ChIP assays were performed with antibodies against CDK9 and recovered ISG56 and ISG15 promoter sequences were quantified by real-time PCR relative to input and represented as percent of the input signal. (C) BT474 cells were either left untreated or treated with IFN-α in the absence or presence of TSA after exposure to Geldanamycin (Gelda) for 24 h, as indicated. mRNA for ISG56, OAS2 and c-Myc were quantified by real-time RT-PCR and normalized to GAPDH. […] ISG56 mRNA was quantified using real-time RT-PCR and normalized to GAPDH mRNA abundance (left panel). […] ISG56, Spt5 mRNA, and ISG54 pre-mRNA were quantified using real-time RT-PCR and normalized to GAPDH mRNA abundance.
To directly probe the involvement of P-TEFb in ISG expression, we assessed its recruitment to chromatin in response to IFN treatment. […]

CC(/C=C/C(=O)NO)=C\[C@@H](C)C(=O)c1ccc(N(C)C)cc1 [TSA, Trichostatin A]
chromatin-bound CDK9 at ISG56 and ISG15 promoters: not observed

Source: patent publication US20190351012A1, “TARGETING OF INTERFERON-STIMULATED GENE EXPRESSION TO TREAT INTERFERONOPATHIES” (New York University, priority 2018, published 2019)
